Tests used:
15-PGDH/HPGD = molecular target: T1, 15-PGDH/HPGD (Homo sapiens, UniProt P15428); test: hPGDH inhibitor screening biochemical assay; conditions: 10 nM enzyme, 15 μM Prostaglandin E2, 0.25 mM NAD, fluorescence ex/em 340/485 nm
T1 construct: purchased R&D System 5660-DH
T1 sequence (P15428 1-266): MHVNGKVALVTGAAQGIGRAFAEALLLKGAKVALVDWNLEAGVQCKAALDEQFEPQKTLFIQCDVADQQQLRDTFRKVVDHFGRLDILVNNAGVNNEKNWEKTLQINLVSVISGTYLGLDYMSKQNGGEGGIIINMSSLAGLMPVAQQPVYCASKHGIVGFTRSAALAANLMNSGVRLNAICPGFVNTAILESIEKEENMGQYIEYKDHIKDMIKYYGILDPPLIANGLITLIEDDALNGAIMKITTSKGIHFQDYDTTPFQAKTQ
Description: A hydroxyprostaglandin dehydrogenase inhibition screening biochemical assay can be performed to assess the synthesized inhibitors provided herein. Provided herein is an exemplary biochemical assay for hPGDH inhibitor screening.
The in vitro biochemical assay can be performed in white, 384 plates in total 20 μl reaction volume consisting of 10 nM of 15-PGDH/HPGD (R&D System #5660-DH), 15 μM Prostaglandin E2 (Sigma, Cat #P5640-10 MG) and 0.25 mM B-Nicotinamide adenine dinucleotide sodium salt (Sigma, Cat #N0632-5G) made in reaction buffer (50 mM Tris-HCl, pH 7.5, 0.01% Tween 20) at 10-point dose response curve for test/tool compounds. Briefly, 5 μl (4×) of compounds solution and 5 μl (final concentration, 10 nM) of enzyme solution is added to white 384 well plates and incubated for 10 mins at 37° C. 5 μl (4×) of Prostaglandin E2 and 5 μl (4×) of β-Nicotinamide adenine dinucleotide sodium salt is added to the wells and incubated for 10 mins at room temperature. Fluorescence is recorded at ex/em=340 nm/485 nm.

A549 = A549 EC50 (cell assay, method not described); format: cell-based; conditions: Homo sapiens, A549, A549

SMILES | IC50 (15-PGDH/HPGD) [nM] | EC50 (A549) [nM]
O[C@@H](c1cnc2c(cnn2-c2ccc3nc(N4CCOCC4)nn3c2)c1)C1COC1 [Compound 64B] | < 100 | < 100
O=C(O)CCc1ccc(-n2ncc3cc([C@@H](O)COC4CCC4)cnc32)cc1F [Compound 82A] | < 100 | 100 to 1000
CS(=O)(=O)c1cccc(-n2ncc3cc([C@@H](O)COC4CCC4)cnc32)c1 [Compound 123A] | – | 100 to 1000
O[C@H](c1cnc2c(ccn2-c2cccc(-c3nnc[nH]3)c2)c1)C1CCCC1 [Compound 6A] | – | < 100
CS(=O)(=O)c1ccc(-n2ncc3cc([C@@H](O)COC4CCC4)cnc32)cc1 [Compound 121A] | 100 to 1000 | 100 to 1000
CC(C)NC[C@@H](O)c1cnc2c(ccn2-c2cccc(-c3nnc[nH]3)c2)n1 [Compound 22B] | 100 to 1000 | ≥ 1000
O=C(O)[C@@H]1CCN(c2ccc(-n3ncc4cc([C@H](O)COC5CCC5)cnc43)cc2)C1 [Compound 87B] | 100 to 1000 | 100 to 1000
CC(C)OCC(O)c1cnc2c(cnn2-c2ccc(CCC(=O)O)c(F)c2)c1 (stereo in doubt) [Compound 70B, (S)-3-(2-fluoro-4-(5-(1-hydroxy-2-isopropoxyethyl)-1H-pyrazolo[3,4-b]pyridin-1-yl)phenyl) propanoic acid] | < 100 | 100 to 1000
O[C@H](COC1CCC1)c1cnc2c(ccn2-c2cccc(-c3nnc[nH]3)c2)n1 [Compound 30A] | < 100 | 100 to 1000
O=C(O)c1ccc(-n2ccc3nc([C@H](O)C4CC(F)(F)C4)cnc32)cc1 [Compound 46A] | < 100 | < 100
CCCOC(C)(C)[C@H](O)c1cnc2c(cnn2-c2cccc(-c3nnc[nH]3)c2)c1 [Compound 57A] | ≥ 1000 | ≥ 1000
O[C@H](c1cnc2c(cnn2-c2cccc(-c3nnc[nH]3)c2)c1)C1CCOCC1 [Compound 52A] | < 100 | 100 to 1000
O=C(O)c1ccc(-n2ncc3cc([C@H](O)COC4(C(F)(F)F)CCC4)cnc32)cc1 [Compound 115B] | < 100 | < 100
O[C@H](COC1CCC1)c1cnc2c(cnn2-c2ccc(N3CCCC3)cc2)c1 [Compound 75A] | 100 to 1000 | 100 to 1000
O=C(O)c1ccc(-n2ncc3cc([C@@H](O)COCC4(C(F)(F)F)CC4)cnc32)cc1 [Compound 113A] | 100 to 1000 | ≥ 1000
O[C@H](COC1CCC1)c1cnc2c(cnn2-c2cccc(-c3nnc[nH]3)c2)c1 [Compound 24B] | < 100 | < 100
C[C@H]1C[C@@H](OC[C@@H](O)c2cnc3c(cnn3-c3ccc(C(=O)O)cc3)c2)C1 [Compound 127B] | < 100 | < 100
O=C(O)c1ccc(-n2ncc3cc([C@H](O)C4(OCC(F)F)CC4)cnc32)cc1 [Compound 72A] | < 100 | 100 to 1000
CCNCC(O)c1cnc2c(cnn2-c2cccc(-c3nnc[nH]3)c2)c1 (stereo not drawn) [Compound 21] | ≥ 1000 | ≥ 1000
CC1(C)CC(OC[C@@H](O)c2cnc3c(cnn3-c3ccc(C(=O)O)nc3)c2)C1 [Compound 116B] | < 100 | ≥ 1000

SMILES | IC50 (15-PGDH/HPGD) [nM] | EC50 (A549) [nM]
CCCOC(C)(C)[C@@H](O)c1cnc2c(cnn2-c2cccc(-c3nnc[nH]3)c2)c1 [Compound 57B] | < 100 | < 100
O[C@H](COC1CC1)c1cnc2c(ccn2-c2cccc(-c3nnc[nH]3)c2)n1 [Compound 38A] | < 100 | < 100
O=C(O)c1ccc(-n2ccc3nc([C@@H](O)COC4CCC4)cnc32)cc1 [Compound 47A] | < 100 | ≥ 1000
CC(C)(C)OC[C@H](O)c1cnc2c(ccn2-c2cccc(-c3nnc[nH]3)c2)c1 [Compound 31A] | < 100 | –
O=C(O)c1ccc(-n2ncc3cc([C@H](O)COC4CC(F)(F)C4)cnc32)cc1 [Compound 91B] | – | ≥ 1000
O=C(O)c1ccc(-n2ccc3cc([C@@H](O)[C@H]4CCCO4)cnc32)cc1 [Compound 100A] | – | ≥ 1000
CC(O)(c1cnc2c(ccn2-c2cccc(-c3nnc[nH]3)c2)c1)C1CCCC1 (single isomer, unassigned) [Compound 11A] | 100 to 1000 | –
O=C(O)c1ccc(-n2ccc3cc([C@H](O)[C@@H]4CCCO4)cnc32)cc1 [Compound 98B] | – | < 100
OC(c1cnc2c(ccn2-c2cccc(-c3nnc[nH]3)c2)c1)C1CC(F)(F)C1 (stereo in doubt) [Compound 7B, (S)-(3,3-difluorocyclobutyl)-[1-[3-(4H-1,2,4-triazol-3-yl)phenyl]pyrrolo[2,3-b]pyridin-5-yl]methanol] | – | < 100
O[C@H](c1cnc2c(cnn2-c2cccc(-c3nnc[nH]3)c2)c1)C1CCCC1 [Compound 9A] | – | < 100
O[C@@H](COC1CCC1)c1cnc2c(cnn2-c2ccc(-c3nnn[nH]3)cc2)c1 [Compound 79B] | < 100 | –
O=C(O)c1ccc(-n2ncc3cc([C@H](O)C4CC(F)(F)C4)cnc32)cn1 [Compound 97A] | – | ≥ 1000
CCCCC(F)(F)[C@H](O)c1cnc2c(ccn2-c2cccc(-c3nnc[nH]3)c2)c1 [Compound 8B] | – | 100 to 1000
CC(O)(c1cnc2c(ccn2-c2cccc(-c3nnc[nH]3)c2)c1)C1CCCC1 (single isomer, unassigned) [Compound 11B] | ≥ 1000 | –
O=C(O)c1ccc(-n2ccc3cc([C@@H](O)[C@@H]4CCCO4)cnc32)cc1 [Compound 98A] | – | ≥ 1000
O=C(O)CCc1ccc(-n2ncc3cc([C@H](O)COC4CC4)cnc32)cc1F [Compound 86B] | < 100 | –
CC1(C)CC(OC[C@H](O)c2cnc3c(cnn3-c3ccc(C(=O)O)cc3)c2)C1 [Compound 105A] | – | 100 to 1000
O=C(O)c1ccc(-n2ncc3cc([C@@H](O)COCC4CCC4)cnc32)cc1 [Compound 101A] | – | < 100
CC(C)(O)c1cnc2c(cnn2-c2cc(Cl)cc(-c3nnc[nH]3)c2)c1 [Compound 19, 2-[1-[3-chloro-5-(4H-1,2,4-triazol-3-yl)phenyl]pyrazolo[3,4-b]pyridin-5-yl]propan-2-ol] | ≥ 1000 | –
O=C(O)c1ccc(-n2ccc3cc([C@H](O)[C@H]4CCCO4)cnc32)cc1 [Compound 100B] | – | < 100

SMILES | IC50 (15-PGDH/HPGD) [nM] | EC50 (A549) [nM]
Cc1nn(-c2ccc(C(=O)O)cc2)c2ncc([C@H](O)C3CC(F)(F)C3)cc12 [Compound 102A] | – | ≥ 1000
OC1(c2cnc3c(ccn3-c3cc(Cl)cc(-c4nnc[nH]4)c3)c2)CCCC1 [Compound 13] | 100 to 1000 | –
O[C@@H](c1cnc2c(cnn2-c2cccc(-c3nnc[nH]3)c2)c1)C1CCCC1 [Compound 9B] | – | < 100
CS(=O)(=O)c1cccc(-n2ncc3cc([C@H](O)COC4CCC4)cnc32)c1 [Compound 123B] | – | ≥ 1000
O=C(O)c1ccc(-n2ccc3cc([C@@H](O)COC4CCC4)cnc32)cc1 [Compound 103A] | – | < 100
O[C@@H](c1cnc2c(ccn2-c2cccc(-c3nnc[nH]3)c2)c1)C1CCCC1 [Compound 6B] | – | 100 to 1000
O=C(O)c1ccc(-n2ccc3cc([C@H](O)COC4CCC4)cnc32)cc1 [Compound 103B] | – | 100 to 1000
O=C(O)c1ccc(-n2ncc3cc([C@@H](O)C4CC(F)(F)C4)cnc32)cn1 [Compound 97B] | – | < 100
CCCCC(F)(F)[C@@H](O)c1cnc2c(ccn2-c2cccc(-c3nnc[nH]3)c2)c1 [Compound 8A] | – | < 100
Cc1nn(-c2ccc(C(=O)O)cc2)c2ncc([C@@H](O)C3CC(F)(F)C3)cc12 [Compound 102B] | – | 100 to 1000
CC(C)(O)c1cnc2c(ccn2-c2cc(Cl)cc(-c3nnc[nH]3)c2)c1 [Compound 14] | 100 to 1000 | –
O=C(O)c1ccc(-n2ncc3cc([C@@H](O)COC4CC(F)(F)C4)cnc32)cc1 [Compound 91A] | – | ≥ 1000
Cc1nn(-c2ccc(C(=O)O)cc2)c2ncc([C@@H](O)COC3CCCC3)cc12 [Compound 104A] | – | 100 to 1000
OC(c1cnc2c(ccn2-c2cccc(-c3nnc[nH]3)c2)c1)C1CC(F)(F)C1 (stereo in doubt) [Compound 7A, (R)-(3,3-difluorocyclobutyl)-[1-[3-(4H-1,2,4-triazol-3-yl)phenyl]pyrrolo[2,3-b]pyridin-5-yl]methanol] | – | < 100
O=C(O)CCc1ccc(-n2ncc3cc([C@H](O)COC4CCC4)cnc32)cc1F [Compound 82B] | – | ≥ 1000
CC1(C)CC(OC[C@@H](O)c2cnc3c(cnn3-c3ccc(C(=O)O)cc3)c2)C1 [Compound 105B] | – | < 100
CC(C)OC[C@@H](O)c1cnc2c(cnn2-c2ccc(OCC(=O)O)cc2)c1 [Compound 78B] | < 100 | –
Cc1nn(-c2ccc(C(=O)O)cc2)c2ncc([C@H](O)COC3CCCC3)cc12 [Compound 104B] | – | 100 to 1000
O=C(O)c1ccc(-n2ncc3cc([C@@H](O)C4COC4)ccc32)cc1 [Compound 120B] | 100 to 1000 | –
CC(C)OC[C@H](O)c1cnc2c(cnn2-c2ccc(CCCC(=O)O)c(F)c2)c1 [Compound 77B] | < 100 | –

Reference: patent US20260234139A1, “PGDH INHIBITORS AND METHODS OF MAKING AND USING” (Epirium Bio Inc., priority 2023, published 2026)
